Measurements reported in paper PMC3710586 (NeuroImage, 2010).
Where “and” joins values, the source holds several entries; their conditions need not be identical. Identical values can stand only once. Entries after “also recorded” stand apart in the source; their conditions may differ. Like-named read-outs stand apart in the source and are kept apart here.

Experiments:
ATX plasma levels = assay type: in vivo, rhesus monkey
[1] = rats; ref Mattiuz et al., 2003; Kielbasa et al., 2009; cited from earlier work
[2] = dogs; ref Mattiuz et al., 2003; cited from earlier work
[3] = humans; ref Sauer et al., 2003; cited from earlier work
[4] = tested on: norepinephrine transporters (NET); details: rhesus monkeys, cited from earlier work
[5] = tested on: norepinephrine transporters (NET); details: humans, cited from earlier work
[6] = humans, ref Logan et al., 2007, cited from earlier work
[7] = target: norepinephrine transporters (NET) (Macaca mulatta, UniProt Q9MYW8)
[8] = target: norepinephrine transporters (Homo sapiens, UniProt P23975); details: read-out: MRB dissociation constant Kd, in vitro; ref Melloni et al., 1984; cited from earlier work
[9] = [11C]MRB arterial input function and plasma metabolite analysis; assay type: in vivo, rhesus monkey; details: for Fraction of unmetabolized [11C]MRB in plasma: n=10
[10] = [11C]MRB plasma free fraction by ultrafiltration; assay type: in vitro ADME, rhesus monkey
[11] = tested on: norepinephrine transporters (NET); details: for Global VND/fP estimate (four NET-rich regions): Eq. 5, shared across regions, rSE 22%
[12] = rhesus monkey, read-out: Percentage of occupancy of NET by ATX
[13] = ATX low dose, Day 2, MA1, one row per monkey
[14] = ATX medium dose, Day 1, MA1, one row per monkey
[15] = Baseline, Day 1, MA1, one row per monkey
[16] = after 40 mg of methylphenidate, n=9, ref Hannestad et al., 2010

Sequence of norepinephrine transporters (NET) (Macaca mulatta, UniProt Q9MYW8) (Q9MYW8 1-617): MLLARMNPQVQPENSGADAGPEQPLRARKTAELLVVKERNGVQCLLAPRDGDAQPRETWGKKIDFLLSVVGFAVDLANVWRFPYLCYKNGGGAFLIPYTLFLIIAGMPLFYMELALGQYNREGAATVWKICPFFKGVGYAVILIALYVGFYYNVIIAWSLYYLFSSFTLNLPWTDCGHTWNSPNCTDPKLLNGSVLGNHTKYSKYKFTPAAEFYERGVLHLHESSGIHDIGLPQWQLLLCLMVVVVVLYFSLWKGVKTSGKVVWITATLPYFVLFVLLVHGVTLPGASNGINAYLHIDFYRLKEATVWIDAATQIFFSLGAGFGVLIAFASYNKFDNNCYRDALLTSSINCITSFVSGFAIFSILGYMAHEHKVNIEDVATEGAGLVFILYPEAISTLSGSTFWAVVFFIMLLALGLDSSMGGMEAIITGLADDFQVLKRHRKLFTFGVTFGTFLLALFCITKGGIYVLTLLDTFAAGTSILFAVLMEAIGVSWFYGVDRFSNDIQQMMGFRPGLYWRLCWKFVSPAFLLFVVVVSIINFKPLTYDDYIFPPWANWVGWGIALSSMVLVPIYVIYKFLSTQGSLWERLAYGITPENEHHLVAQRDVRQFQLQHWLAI
Sequence of norepinephrine transporters (P23975 whole entry): as the sequence (Q9MYW8 1-617) above, with S15N, A19T, V246I, I410V, I427V, G452S, V606I counted along it

Question: With `CNCC[C@@H](Oc1ccccc1C)c1ccccc1` [ATX, atomoxetine] as the molecule, how does the “Percent change per hour of ATX plasma level during the PET scan” value (ATX plasma levels; mono-exponential fit of 0-, 60-, 120-min samples) read?
Answer: The value was −1±6 %/h.

Question: What about the “Slope of regression of ATX plasma level versus maintenance infusion rate” value (ATX plasma levels; r^2=0.902, n=7, intercept set to zero) of the same molecule?
Answer: The value was 1.04 kg·h/L and 1.042 kg·h/L.

Question: What about the “Plasma free fraction of ATX” value [1] of the same molecule?
Answer: Its value is 11–13%.

Question: And the “Plasma free fraction of ATX” value [2]?
Answer: Its value is 3%.

Question: And the “Plasma free fraction of ATX” value [3]?
Answer: Its value is 1.3%.

Question: And the “ATX IC50 in occupancy study using [18F]F-MeNER-D2” value ([4]; plasma, ref Takano et al., 2009a)?
Answer: The value was 0.016 µg/mL.

Question: And the “Reduction of [11C]MRB average VT in the occipital cortex” value ([5]; after 100 mg of ATX, ref Logan et al., 2007)?
Answer: Its value is 10%.

Question: And the “Plasma levels of ATX” value ([6]; 25 mg oral ATX)?
Answer: Its value is 116 ng/mL.

Question: And the “Plasma levels of ATX” value ([6]; 50 mg oral ATX)?
Answer: Its value is 206 ng/mL.

Question: What about the “Plasma levels of ATX” value ([6]; 100 mg oral ATX) of the same molecule?
Answer: The value was 421 ng/mL.

Question: What about the IC50 ([7]; ATX IC50 using BPF, caudate as reference region, plasma concentration, rSE 16%) of the same molecule?
Answer: Its IC50 is 74.4 nM.

Question: What about the “Effect of ATX on [11C]MRB binding (VT/fP) in NET-rich regions” value ([7]; all monkeys, increasing ATX infusion doses) of the same molecule?
Answer: Its value is “decreased in a dosedependent manner; also recorded: inhibited in a dose-dependent manner”.

Question: And the “ATX occupancy estimate (Lassen plot)” value ([7]; monkey 1, high-dose scan)?
Answer: Its value is 86±13%.

Question: What about the “ATX occupancy estimate (Lassen plot)” value ([7]; monkey 1, low-dose scan) of the same molecule?
Answer: The value was 31±10%.

Question: And the “ATX occupancy estimate (Lassen plot)” value ([7]; monkey 1, medium-dose scan)?
Answer: Its value is 56±7%.

Question: What about the “ATX occupancy estimate (Lassen plot)” value ([7]; monkey 2 (only medium-dose scan acquired)) of the same molecule?
Answer: The value was 65±18%.

Question: And the “ATX occupancy estimate (Lassen plot)” value ([7]; monkey 3, high-dose scan)?
Answer: Its value is 82±6%.

Question: And the “ATX occupancy estimate (Lassen plot)” value ([7]; monkey 3, low-dose scan)?
Answer: The value was 39±14%.

Question: And the “ATX occupancy estimate (Lassen plot)” value ([7]; monkey 3, medium-dose scan)?
Answer: Its value is 63±7%.

Question: What about the ED50 ([7]; rhesus monkey, read-out: ATX ED50, dose) of the same molecule?
Answer: Its ED50 is 0.13 mg/kg.

Question: And the receptor occupancy at 0.012 µg/mL [7, 12]?
Answer: The receptor occupancy at 0.012 µg/mL was 27%.

Question: What about the receptor occupancy at 0.132 µg/mL [7, 12] of the same molecule?
Answer: Its receptor occupancy at 0.132 µg/mL is 80%.

Question: Which Kd [8] does the source give for `COc1ccccc1OC(c1ccccc1)C1CNCCO1` (centres unmarked) [MRB] here?
Answer: Its Kd is 2.5 nM.

Question: Which “Fraction of unmetabolized [11C]MRB in plasma” value ([9]; 20 min post-injection) does the source give for `[11CH3]Oc1ccccc1O[C@@H](c1ccccc1)[C@@H]1CNCCO1` [[^11C]MRB, (S,S)-[^11C]methylreboxetine] here?
Answer: The value was 42±8%.

Question: And the “Fraction of unmetabolized [11C]MRB in plasma” value ([9]; 90 min post-injection)?
Answer: Its value is 25±4%.

Question: What about the “Whole blood to plasma radioactivity concentration ratio” value ([9]; throughout the scans) of the same molecule?
Answer: Its value is 0.94±0.13.

Question: What about the “Change of plasma free fraction fP from first to second scan of the day” value [10] of the same molecule?
Answer: The value was “+17%±10”.

Question: What about the “Day-to-day variability of plasma free fraction fP” value ([10]; monkey #1) of the same molecule?
Answer: The value was −16%.

Question: And the “Day-to-day variability of plasma free fraction fP” value ([10]; monkey #3)?
Answer: Its value is −68%.

Question: What about the “Distribution Volume VT, Caudate” value [11, 13] of the same molecule?
Answer: Its value is 6.2 mL/cm^3 and 2.1 mL/cm^3.

Question: What about the “Distribution Volume VT, Midbrain” value [11, 13] of the same molecule?
Answer: The value was 9.0 mL/cm^3 and 3.0 mL/cm^3.

Question: What about the “Distribution Volume VT, Putamen” value [11, 13] of the same molecule?
Answer: Its value is 2.4 mL/cm^3 and 6.8 mL/cm^3.

Question: And the “Distribution Volume VT, Anterior Cingulate” value [11, 14]?
Answer: Its value is 11.0 mL/cm^3 and 8.7 mL/cm^3 and 8.3 mL/cm^3.

Question: What about the “Distribution Volume VT, Brainstem” value [11, 14] of the same molecule?
Answer: The value was 11.5 mL/cm^3 and 7.3 mL/cm^3 and 8.2 mL/cm^3.

Question: What about the “Distribution Volume VT, Caudate” value [11, 14] of the same molecule?
Answer: Its value is 8.7 mL/cm^3 and 6.5 mL/cm^3 and 6.3 mL/cm^3.

Question: And the “Distribution Volume VT, Midbrain” value [11, 14]?
Answer: Its value is 10.1 mL/cm^3 and 7.5 mL/cm^3 and 7.8 mL/cm^3.

Question: And the “Distribution Volume VT, Occipital” value [11, 14]?
Answer: Its value is 8.2 mL/cm^3 and 6.4 mL/cm^3 and 5.6 mL/cm^3.

Question: What about the “Distribution Volume VT, Putamen” value [11, 14] of the same molecule?
Answer: The value was 7.2 mL/cm^3 and 9.9 mL/cm^3 and 8.7 mL/cm^3.

Question: What about the “Distribution Volume VT, Thalamus” value [11, 14] of the same molecule?
Answer: The value was 11.6 mL/cm^3 and 8.2 mL/cm^3 and 8.5 mL/cm^3.

Question: What about the “Distribution Volume VT, Anterior Cingulate” value [11, 15] of the same molecule?
Answer: Its value is 13.3 mL/cm^3 and 10.1 mL/cm^3 and 10.9 mL/cm^3.

Question: And the “Distribution Volume VT, Brainstem” value [11, 15]?
Answer: The value was 16.3 mL/cm^3 and 10.2 mL/cm^3 and 11.1 mL/cm^3.

Question: What about the “Distribution Volume VT, Midbrain” value [11, 15] of the same molecule?
Answer: The value was 13.3 mL/cm^3 and 10.5 mL/cm^3 and 9.4 mL/cm^3.

Question: And the “Distribution Volume VT, Occipital” value [11, 15]?
Answer: The value was 8.4 mL/cm^3 and 6.6 mL/cm^3 and 6.4 mL/cm^3.

Question: What about the “Distribution Volume VT, Putamen” value [11, 15] of the same molecule?
Answer: The value was 6.3 mL/cm^3 and 8.9 mL/cm^3 and 6.6 mL/cm^3.

Question: What about the “Distribution Volume VT, Thalamus” value [11, 15] of the same molecule?
Answer: The value was 15.5 mL/cm^3 and 10.7 mL/cm^3 and 12.7 mL/cm^3.

Question: And the “Distribution Volume VT, Caudate” value ([11]; Baseline, Day 1, MA1 t*=30 min, one row per monkey #1-#3)?
Answer: The value was 7.7 mL/cm^3 and 6.5 mL/cm^3 and 5.9 mL/cm^3.

Question: What about the “VND/fP in the putamen” value ([11]; Bmax/Kd set to zero) of the same molecule?
Answer: Its value is 30 mL/cm^3.

Question: And the “Global VND/fP estimate (four NET-rich regions)” value [11]?
Answer: The value was 19±4 mL/cm^3.

Question: What about the “Global VND/fP estimate (four NET-rich regions)” value ([11]; listed as [^11C] MRB) of the same molecule?
Answer: The value was 19 mL/cm^3.

Question: And the “VND/fP estimate (four high binding regions plus occipital cortex)” value ([11]; Eq. 5, rSE 15%)?
Answer: Its value is 19± 3 mL/cm^3.

Question: What about the “Binding potential BPND in the thalamus” value ([11]; baseline VT/fP divided by global VND/fP, minus one, n=3) of the same molecule?
Answer: The value was 1.8±0.3.

Question: And the “Expected value of BPND in the thalamus” value ([11]; computed from in vitro Kd 2.5 nM, NET density 23–72 nM and fND)?
Answer: Its value is 0.46–1.44.

Question: And the “Tissue free fraction fND” value ([11]; fND=fP/VND, from VND/fP 19 mL/cm^3)?
Answer: The value was about 5%.

Question: What about the “VT/fP after blockade by the highest dose of ATX, anterior cingulate cortex” value ([11]; n=2, unit not given) of the same molecule?
Answer: Its value is 24±3.

Question: What about the “VT/fP after blockade by the highest dose of ATX, brainstem” value ([11]; n=2, unit not given) of the same molecule?
Answer: Its value is 24±1.

Question: And the “VT/fP after blockade by the highest dose of ATX, midbrain” value ([11]; n=2, unit not given)?
Answer: The value was 23±1.

Question: And the “VT/fP after blockade by the highest dose of ATX, thalamus” value ([11]; n=2, unit not given)?
Answer: Its value is 26±3.

Question: And the “Normalized distribution volume VT/fP at baseline, caudate nucleus” value ([11]; n=3)?
Answer: The value was 28±3 mL/cm^3.

Question: And the “Normalized distribution volume VT/fP at baseline, occipital cortex” value ([11]; n=3)?
Answer: The value was 30±2 mL/cm^3.

Question: And the “Normalized distribution volume VT/fP at baseline, putamen” value ([11]; n=3)?
Answer: The value was 30±2 mL/cm^3.

Question: And the “Specific binding in the NET-poor regions (caudate, putamen and occipital)” value ([11]; or a higher non-specific binding)?
Answer: The value was at most 30%.

Question: For `[2H]C([2H])([18F])Oc1ccccc1O[C@@H](c1ccccc1)[C@H]1CNCCO1` [[^18F]MeNER-D2], which “BPND in the thalamus” value ([4]; ref Seneca et al., 2006) is on record?
Answer: The value was 0.26±0.06.

Question: What about the “BPND in the thalamus” value ([4]; ref Takano et al., 2009a,b) of the same molecule?
Answer: Its value is 0.7±0.1.

Question: Which results are given for `COC(=O)C(c1ccccc1)C1CCCCN1` (centres unmarked) [methylphenidate]?
Answer: Reduction of [11C]MRB VT in the occipital cortex [5, 16]: 9±17%; Reduction of [11C]MRB VT/fP in the occipital cortex [5, 16]: 5±15%
